Reference: ChEMBL document CHEMBL4014323, “Hydroxy-Substituted Heteroarylpiperazines: Novel Scaffolds for β-Arrestin-Biased D2R Agonists” (J Med Chem, 2017)

What was measured:
D(4) dopamine receptor = target: T1, D(4) dopamine receptor (Homo sapiens, UniProt P21917); assay: biochemical; format: cell-based
T1 sequence (P21917 whole entry): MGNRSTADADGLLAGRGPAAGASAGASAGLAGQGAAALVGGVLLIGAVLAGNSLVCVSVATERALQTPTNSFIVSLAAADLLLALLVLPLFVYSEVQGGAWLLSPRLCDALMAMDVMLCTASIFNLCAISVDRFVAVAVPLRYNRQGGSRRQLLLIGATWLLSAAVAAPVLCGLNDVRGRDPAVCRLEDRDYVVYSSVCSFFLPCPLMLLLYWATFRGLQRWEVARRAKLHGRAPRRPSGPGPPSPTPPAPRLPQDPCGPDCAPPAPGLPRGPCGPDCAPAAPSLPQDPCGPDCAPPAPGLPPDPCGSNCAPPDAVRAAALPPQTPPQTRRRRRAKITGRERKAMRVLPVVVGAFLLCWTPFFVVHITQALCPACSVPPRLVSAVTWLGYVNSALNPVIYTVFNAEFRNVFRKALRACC
Description: Displacement of [3H]spiperone from human D4R expressed in CHO cell membranes by radioligand binding assay

D(1B) dopamine receptor = D(1B) dopamine receptor (Homo sapiens, UniProt P21918); assay: biochemical
Sequence of D(1B) dopamine receptor (P21918 whole entry): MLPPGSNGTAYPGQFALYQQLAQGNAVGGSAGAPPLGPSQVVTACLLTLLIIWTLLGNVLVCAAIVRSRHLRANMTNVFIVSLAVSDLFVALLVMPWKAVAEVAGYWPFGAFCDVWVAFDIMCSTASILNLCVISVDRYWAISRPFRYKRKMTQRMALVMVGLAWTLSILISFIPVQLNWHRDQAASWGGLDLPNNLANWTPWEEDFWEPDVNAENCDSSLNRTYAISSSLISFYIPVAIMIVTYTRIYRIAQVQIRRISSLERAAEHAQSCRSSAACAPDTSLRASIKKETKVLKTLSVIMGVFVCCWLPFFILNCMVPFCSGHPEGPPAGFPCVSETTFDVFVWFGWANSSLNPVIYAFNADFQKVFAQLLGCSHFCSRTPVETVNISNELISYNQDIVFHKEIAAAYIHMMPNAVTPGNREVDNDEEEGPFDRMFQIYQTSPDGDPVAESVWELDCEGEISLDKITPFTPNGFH
Description: Displacement of [3H]SCH23390 from human D5R expressed in HEK293T cell membranes by radioligand binding assay

D(2) dopamine receptor [1] = target: T2, D(2) dopamine receptor (Homo sapiens, UniProt P14416); assay: biochemical; format: cell-based
T2 sequence (P14416 whole entry): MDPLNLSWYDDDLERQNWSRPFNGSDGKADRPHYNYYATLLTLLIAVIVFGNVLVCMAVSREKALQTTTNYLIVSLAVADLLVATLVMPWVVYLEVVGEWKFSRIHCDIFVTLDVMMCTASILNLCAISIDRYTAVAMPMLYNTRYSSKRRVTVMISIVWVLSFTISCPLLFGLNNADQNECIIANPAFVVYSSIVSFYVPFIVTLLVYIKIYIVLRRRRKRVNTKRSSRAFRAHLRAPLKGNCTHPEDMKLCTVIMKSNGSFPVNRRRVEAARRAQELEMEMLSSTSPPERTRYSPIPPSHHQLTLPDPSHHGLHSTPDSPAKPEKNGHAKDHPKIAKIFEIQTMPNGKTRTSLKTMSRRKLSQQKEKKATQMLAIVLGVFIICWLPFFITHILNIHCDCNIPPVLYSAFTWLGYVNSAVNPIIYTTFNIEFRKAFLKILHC
Description: Displacement of [3H]spiperone from human D2SR expressed in CHO cell membranes by radioligand binding assay

HEK293 = assay: Cytotoxicity against HEK293 cells; format: cell-based; settings: human
D(1A) dopamine receptor = D(1A) dopamine receptor (Homo sapiens, UniProt P21728); assay: biochemical
Sequence of D(1A) dopamine receptor (P21728 whole entry): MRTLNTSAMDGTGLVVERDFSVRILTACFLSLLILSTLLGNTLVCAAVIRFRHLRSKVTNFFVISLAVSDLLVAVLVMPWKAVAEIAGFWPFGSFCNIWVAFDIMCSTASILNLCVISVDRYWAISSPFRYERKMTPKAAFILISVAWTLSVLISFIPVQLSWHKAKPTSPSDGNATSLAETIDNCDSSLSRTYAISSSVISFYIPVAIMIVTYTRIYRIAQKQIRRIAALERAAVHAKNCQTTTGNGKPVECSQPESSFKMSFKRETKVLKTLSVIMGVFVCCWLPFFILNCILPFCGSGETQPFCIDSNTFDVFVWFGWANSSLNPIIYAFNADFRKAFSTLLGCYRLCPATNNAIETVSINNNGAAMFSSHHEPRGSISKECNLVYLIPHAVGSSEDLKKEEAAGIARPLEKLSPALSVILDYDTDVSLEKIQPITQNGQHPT
Description: Displacement of [3H]SCH23390 from human D1R expressed in HEK293T cell membranes by radioligand binding assay

[2] = target: 5-hydroxytryptamine receptor 2A (Homo sapiens, UniProt P28223); assay: biochemical
Sequence of 5-hydroxytryptamine receptor 2A (P28223 whole entry): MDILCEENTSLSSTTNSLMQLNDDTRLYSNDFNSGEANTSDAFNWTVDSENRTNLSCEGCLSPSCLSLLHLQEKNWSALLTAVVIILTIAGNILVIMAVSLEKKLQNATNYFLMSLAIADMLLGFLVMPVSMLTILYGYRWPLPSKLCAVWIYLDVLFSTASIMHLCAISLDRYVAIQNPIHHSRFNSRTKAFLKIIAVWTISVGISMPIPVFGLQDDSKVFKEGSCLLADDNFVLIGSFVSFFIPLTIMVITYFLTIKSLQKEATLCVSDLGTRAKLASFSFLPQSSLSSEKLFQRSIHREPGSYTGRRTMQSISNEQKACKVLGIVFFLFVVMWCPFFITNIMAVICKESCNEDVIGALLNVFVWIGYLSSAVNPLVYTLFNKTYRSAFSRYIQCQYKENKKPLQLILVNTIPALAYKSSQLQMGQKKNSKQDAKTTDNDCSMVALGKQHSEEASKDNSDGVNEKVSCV
Description: Displacement of [3H]ketanserin from human 5-HT2AR expressed in HEK293T cell membranes by radioligand binding assay

D(2) dopamine receptor [3] = target: T2, D(2) dopamine receptor; assay: biochemical; format: cell-based; remark: listed apart in the source
Description: Displacement of [3H]spiperone from human D2LR expressed in CHO cell membranes by radioligand binding assay

D(2) dopamine receptor [4] = target: T2, D(2) dopamine receptor; format: cell-based, HEK-293T
Description: Partial agonist activity at human D2SR expressed in HEK293T cells co-expressing (EA)beta-arrestin2 assessed as induction of beta-arrestin2 recruitment after 5 hrs by chemiluminescence assay

[5] = target: T3, Voltage-gated inwardly rectifying potassium channel KCNH2 (Homo sapiens, UniProt Q12809); assay: Inhibition of human ERG expressed in CHO cells assessed as reduction in tail current at 1 uM and -40 holding potential by automated patch-clamp assay; format: cell-based
T3 sequence (Q12809 whole entry): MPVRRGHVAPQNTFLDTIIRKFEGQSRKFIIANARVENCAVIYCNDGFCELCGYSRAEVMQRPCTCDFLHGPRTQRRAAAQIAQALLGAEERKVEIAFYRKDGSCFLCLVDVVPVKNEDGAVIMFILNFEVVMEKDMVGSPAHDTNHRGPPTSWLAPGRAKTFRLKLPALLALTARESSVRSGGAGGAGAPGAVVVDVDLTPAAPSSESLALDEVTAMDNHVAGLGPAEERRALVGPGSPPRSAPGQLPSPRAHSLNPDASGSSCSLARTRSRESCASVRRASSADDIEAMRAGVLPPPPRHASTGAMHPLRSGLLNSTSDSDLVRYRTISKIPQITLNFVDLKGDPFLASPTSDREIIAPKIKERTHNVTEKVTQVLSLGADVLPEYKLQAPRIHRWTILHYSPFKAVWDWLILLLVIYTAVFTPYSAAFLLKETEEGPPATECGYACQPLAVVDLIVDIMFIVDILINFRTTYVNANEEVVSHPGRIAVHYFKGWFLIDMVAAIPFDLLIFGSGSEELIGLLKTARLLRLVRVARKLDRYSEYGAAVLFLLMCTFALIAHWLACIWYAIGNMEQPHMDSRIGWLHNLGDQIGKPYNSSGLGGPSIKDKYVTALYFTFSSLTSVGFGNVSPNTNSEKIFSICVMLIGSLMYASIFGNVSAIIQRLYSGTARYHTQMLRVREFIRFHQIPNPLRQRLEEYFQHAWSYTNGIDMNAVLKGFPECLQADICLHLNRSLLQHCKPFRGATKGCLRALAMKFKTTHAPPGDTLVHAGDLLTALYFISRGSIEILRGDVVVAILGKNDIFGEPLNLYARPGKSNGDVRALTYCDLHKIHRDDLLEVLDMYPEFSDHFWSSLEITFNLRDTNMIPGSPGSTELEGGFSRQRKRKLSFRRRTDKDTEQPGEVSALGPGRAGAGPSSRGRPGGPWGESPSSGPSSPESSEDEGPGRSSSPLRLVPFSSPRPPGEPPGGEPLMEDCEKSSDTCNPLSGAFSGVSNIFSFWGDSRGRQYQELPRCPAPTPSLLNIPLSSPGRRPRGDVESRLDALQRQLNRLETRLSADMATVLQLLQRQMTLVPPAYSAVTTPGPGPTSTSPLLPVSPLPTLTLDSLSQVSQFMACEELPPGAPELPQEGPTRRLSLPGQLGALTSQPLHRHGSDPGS

[6] = Binding affinity to microsomal protein in Sprague-Dawley rat liver microsomes after 60 mins in absence of NADPH by HPLC analysis; format: ADME; settings: 1 h
D(2) dopamine receptor [7] = target: T2, D(2) dopamine receptor; settings: HEK-293T, at 1e-07 to 100 µM
Description: Agonist activity at human D2S receptor expressed in HEK293T cell membranes coexpressing Galphao1 assessed as induction of nucleotide exchange at 0.1 pM to 100 uM preincubated for 30 mins followed by addition of [35S]GTPgammaS measured after 30 mins by [35S]GTPgammaS binding assay relative to quinpirole

[8] = Intrinsic clearance in Sprague-Dawley rat liver microsomes assessed per mg protein at 20 uM by HPLC analysis; format: ADME, microsome; settings: read-out: CLH
[9] = Half life in Sprague-Dawley rat liver microsomes at 20 uM by HPLC analysis; format: ADME, microsome
[10] = Binding affinity to microsomal protein in Sprague-Dawley rat liver microsomes after 60 mins in presence of NADPH by HPLC analysis; format: ADME; settings: read-out: PB (converted)
[11] = target: T3, Voltage-gated inwardly rectifying potassium channel KCNH2; assay: Inhibition of human ERG expressed in CHO cells assessed as reduction in tail current at -40 holding potential by automated patch-clamp assay; format: cell-based
hERG (KCNH2) [12] = target: T4, hERG (KCNH2) (Homo sapiens, UniProt Q12809); assay: Inhibition of human ERG expressed in CHO cells assessed as tail current remaining at 10 uM and -40 holding potential by automated patch-clamp assay; format: cell-based; settings: CHO cells expressing human ERG, read-out: Activity
T4 sequence (Q12809 whole entry): as above

D(2) dopamine receptor [13] = target: T2, D(2) dopamine receptor; format: cell-based, HEK-293T; remark: listed apart in the source
Description: Partial agonist activity at human D2SR expressed in HEK293T cells co-expressing (EA)beta-arrestin2 and GRK2 assessed as induction of beta-arrestin2 recruitment after 5 hrs by chemiluminescence assay

D(2) dopamine receptor [14] = target: T2, D(2) dopamine receptor; format: functional, cell-based, HEK-293T
Description: Agonist activity at human D2S receptor expressed in HEK293T cell membranes coexpressing Galphao1 assessed as induction of nucleotide exchange preincubated for 30 mins followed by addition of [35S]GTPgammaS measured after 30 mins by [35S]GTPgammaS binding assay

hERG (KCNH2) [15] = target: T4, hERG (KCNH2); assay: Inhibition of human ERG expressed in CHO cells assessed as tail current remaining at 50 uM and -40 holding potential by automated patch-clamp assay; format: cell-based; settings: CHO cells expressing human ERG, read-out: Activity
Liver = assay: Metabolic stability in Sprague-Dawley rat liver microsomes at 20 uM measured after 15 mins by HPLC-based mass-spectrometry; format: ADME, microsome; settings: 0.25 h
D(2) dopamine receptor [16] = target: T2, D(2) dopamine receptor; assay: Agonist activity at human D2S receptor expressed in HEK293T cell membranes coexpressing Galphao1 assessed as induction of nucleotide exchange at 30 uM preincubated for 30 mins followed by addition of [35S]GTPgammaS measured after 30 mins by [35S]GTPgammaS binding assay relative to quinpirole; format: functional; settings: HEK-293T

SMILES	Ki (D(4) dopamine receptor)	Ki (D(1B) dopamine receptor)	Ki (D(2) dopamine receptor [1])	Activity (HEK293)	Ki (D(1A) dopamine receptor)	Ki [2]	Ki (D(2) dopamine receptor [3])	EC50 (D(2) dopamine receptor [4])	Emax (D(2) dopamine receptor [7])	EC50 (D(2) dopamine receptor [13])	EC50 (D(2) dopamine receptor [14])	further results
O=C1CCc2ccc(OCCCCN3CCN(c4ccc(O)c5c4OCCO5)CC3)cc2N1	300 nM	16000 nM	2.2 nM	Non-Toxic	4500 nM	160 nM	2.9 nM	–	–	–	–	–
CCCCn1cc(CCCOc2ccc(C(=O)NCCCCN3CCCN(c4ccc(O)c5[nH]c(=O)ccc45)CC3)cc2OC)nn1	2100 nM	> 20000 nM	220 nM	Non-Toxic	4000 nM	1500 nM	200 nM	1600 nM	–	–	–	–
O=C1CCc2ccc(OCCCCN3CCN(c4ccc(O)c5[nH]c(=O)ccc45)CC3)cc2N1	66 nM	9300 nM	1 nM	Non-Toxic	5400 nM	2200 nM	0.89 nM	93 nM	–	–	–	–
O=C1CCc2ccc(OCCCCN3CCCN(c4ccc(O)c5[nH]c(=O)ccc45)CC3)cc2N1	75 nM	> 20000 nM	0.81 nM	Non-Toxic	11000 nM	3400 nM	1.6 nM	190 nM	55%	200 nM	67 nM	inhibition (INH) [5]: Not Active; PB [6]: Not Active; microsomal CLint at 20 µM [8]: 11 µL/min/mg; half-life at 20 µM [9]: 130 min; fraction unbound at 1 h [10]: 0.73; IC50 [11]: 19700 nM; inhibition (INH) ([11]; human): Dose-dependent effect; activity at 10 µM (hERG (KCNH2) [12]): 71.7%; activity at 50 µM (hERG (KCNH2) [15]): 21.5%
O=C1CCc2ccc(OCCCCN3CCN(c4ccc(O)c5ncccc45)CC3)cc2N1	94 nM	3400 nM	1.5 nM	Non-Toxic	1500 nM	39 nM	3.4 nM	–	–	–	–	–
CCCN(CCc1cccs1)[C@H]1CCc2c(O)cccc2C1 [ROTIGOTINE]	–	–	–	–	–	–	–	4.1 nM	91%	4.4 nM	3.2 nM	microsomal CLint at 20 µM [8]: 240 µL/min/mg; half-life at 20 µM [9]: 5.8 min; Stability (Liver): Unstable
O=C1CCc2ccc(OCCCCN3CCCN(c4ccc(O)c5c4OCC(=O)N5)CC3)cc2N1	60 nM	15000 nM	1.6 nM	Non-Toxic	2700 nM	2000 nM	1.6 nM	470 nM	26%	630 nM	78 nM	–
O=C1CCc2ccc(OCCCCN3CCCN(c4ccc(O)c5oc(=O)ccc45)CC3)cc2N1	5000 nM	> 20000 nM	37 nM	Non-Toxic	> 20000 nM	2300 nM	100 nM	220 nM	–	130 nM	> 5000 nM	Emax (D(2) dopamine receptor [16]): 36%
CCCN[C@H]1CCc2nc(N)sc2C1	–	–	–	–	–	–	–	–	102%	–	–	–
O=c1ccc2c(N3CCN(CCCCOc4ccn5nccc5c4)CC3)ccc(O)c2[nH]1	31 nM	13000 nM	–	Non-Toxic	4700 nM	3600 nM	–	–	–	–	–	–
O=C1COc2c(N3CCN(CCCCOc4ccn5nccc5c4)CC3)ccc(O)c2N1	4.8 nM	16000 nM	0.86 nM	Non-Toxic	2300 nM	1300 nM	2 nM	62 nM	–	–	–	–
CCCCn1cc(CCCOc2ccc(C(=O)NCCCN3CCCN(c4ccc(O)c5[nH]c(=O)ccc45)CC3)cc2OC)nn1	3200 nM	> 20000 nM	440 nM	Non-Toxic	17000 nM	4200 nM	350 nM	680 nM	–	–	–	–
CCCN(CCC)CCc1cccc2c1CC(=O)N2 [ROPINIROLE]	–	–	–	–	–	–	–	89 nM	92%	30 nM	330 nM	–
Oc1ccc(N2CCN(CCCCOc3ccn4nccc4c3)CC2)c2cccnc12	55 nM	5800 nM	25 nM	Non-Toxic	1100 nM	200 nM	33 nM	–	–	–	–	–
O=c1ccc2c(N3CCCN(CCCCOc4ccn5nccc5c4)CC3)ccc(O)c2[nH]1	190 nM	> 20000 nM	46 nM	Non-Toxic	13000 nM	9000 nM	78 nM	370 nM	56%	250 nM	90 nM	PB [6]: Not Active; microsomal CLint at 20 µM [8]: 27 µL/min/mg; half-life at 20 µM [9]: 51 min; Stability (Liver): Unstable
O=C1CCc2ccc(OCCCCN3CCN(c4ccc(O)c5oc(=O)ccc45)CC3)cc2N1	870 nM	> 20000 nM	2 nM	Non-Toxic	> 20000 nM	> 20000 nM	4.8 nM	–	–	–	–	–
Oc1ccc(N2CCN(CCCCOc3ccn4nccc4c3)CC2)c2c1OCCO2	160 nM	19000 nM	68 nM	Non-Toxic	5300 nM	480 nM	110 nM	–	–	–	–	–
O=c1ccc2c(N3CCN(CCCCOc4ccn5nccc5c4)CC3)ccc(O)c2o1	270 nM	> 20000 nM	19 nM	Non-Toxic	> 20000 nM	2800 nM	40 nM	–	–	–	–	–
O=C1CCc2ccc(OCCCCN3CCN(c4ccc(O)c5c4OCC(=O)N5)CC3)cc2N1	8.3 nM	4200 nM	0.67 nM	Non-Toxic	12000 nM	430 nM	0.87 nM	92 nM	–	–	–	–
